Each structure is given as a SMILES string.

Common to all, as to type: cell-based, human
Assay [1] has as its system ARPE-19 cells. Briefly: GSH assay (Promega GSH/GSSG-Glo). As to conditions: 1 mM for 24 hours. As to the method:
The production of cellular GSH levels upon exposure to drugs were measured using the GSH assay kit. NACA and GSH-EE were used as controls in this assay. ARPE-19 cells were grown in white 96 well plates. The cells were exposed to 1 mM solutions of NAC, NACME, NACEE, NACPE, NACBE, NACA and glutathione ethyl ester (GSH-EE) for 24 hours. The solutions were removed and washed with PBS once. Afterwards, GSH assay was carried out according to manufacturer recommended protocol (Promega GSH/GSSG-Glo™) and luminescence readings were obtained with a luminometer, which a higher luminescence intensity indicates a higher GSH concentration.

Assay [2] concerns ARPE-19 cells. Briefly: JC-1 assay (mitochondrial membrane potential). As to conditions: 1 mM pretreatment for 1 hour, then 50 μM HQ for 4 hours. As to the method: JC-1 assays measuring the change in mitochondrial membrane potential were carried out to evaluate the protection of the NAC alkyl-ester analogues towards mitochondrial damage.
Typically, JC-1 dye has an inherent green fluorescence at 530 nm. Upon reaching the cell, due to the structural properties of the dye, it will accumulate in the mitochondria making aggregates known as J-aggregates. These J-aggregates consists of a red shifted fluorescence (590 nm). Damaged or unhealthy mitochondria, due to their depolarized membrane potential (compared to healthy ones), will have lesser amounts of aggregates and thus will have low intensity of red emission. Cells with healthy mitochondria will have a more prominent red fluorescence than that in cells with damaged/unhealthy mitochondria due to the ability in forming J-aggregates.
ARPE-19 cells were grown in black, clear bottom 96 well plates. […] With increasing time and dose of HQ, a drop in 590 nm/530 nm fluorescence is seen due to the depolarization of the mitochondria.
Next, to assess the effect of NAC alkyl-ester analogues on oxidative damage in mitochondria (FIG. 12B), ARPE-19 cells were pretreated with 1 mM NAC, NAC alkyl-ester analogues, NACA, GSH-EE and 1 μM MitoQ for 1 and 24 hours. […] The JC-1 solution was removed and washed once with PBS and fluorescence measurements were obtained in PBS at 485 nm excitation and emission at 535 nm and 590 nm. […]

Assay [3] deals with mitochondria isolated from ARPE-19 cells. Briefly: Mitochondrial GSH assay. As to conditions: 1 mM for 24 hours; compared to NAC and ARPE-19 cells. The protocol:
A GSH assay was carried out for isolated mitochondria to study the mechanism of action of the NAC alkyl-ester analogues in protecting mitochondria. ARPE-19 cells were grown in 6 well plates until 100% confluent in MEM-NIC media. The cells were exposed to 3 mL of 1 mM solutions of NAC and NACBE for 24 hours. The solutions were removed and washed with 3 mL of HBSS before adding 1 mL of 0.25% Trypsin-EDTA and incubating for 10 minutes. 2 mL of DMEM:F-12 supplemented with 10% FBS was added to each well, harvested and centrifuged at 300 rcf for 5 minutes. The supernatant was removed and cell pellet was resuspended in 2 mL of isolation buffer (0.25 M sucrose and 10 mM HEPES).
Cells were disrupted using a probe sonicator (Misonix 5-3000) for 10 seconds in ice. Subsequently, intact cells and debris were removed by centrifuging at 1000 g for 10 mins. Supernatant was collected, and centrifuged at 20,000 g for 25 minutes. Pellet containing mitochondria were saved and washed using 0.5 mL of isolation buffer. After centrifuging at 20,000 g for 25 minutes the mitochondrial pellet was resuspended in 50 μL of HBSS. 25 μL was used to determine total GSH and GSSG and 25 μL was used to determine GSSG levels. GSH assay was then carried out according to manufacturer recommended protocol (Promega GSH/GSSG-Glo™) and luminescence readings were obtained.

The test system of assay [4] is mitochondrial DNA of ARPE-19 cells. Briefly: DNA fragmentation assay (long-extension PCR of mitochondrial DNA). As to conditions: pretreatment for 24 hours (1 mM), then 500 uM HQ for 24 hours. As to the method:
Mitochondrial DNA damage has been linked to pathogenic diseases, including AMD. To determine if pretreatment of RPE cells with NAC alkyl-ester analogues could protect mitochondrial DNA against oxidative damage, a long-extension PCR based assay was used to measure amplification of a large stretch of mitochondrial DNA. The mitochondrial DNA damage assay was performed according to protocols known to those in the art (see Santos, J. H.; Mandavilli, B. S.; Van Houten, B., Measuring Oxidative mtDNA Damage and Repair Using Quantitative PCR. In Mitochondrial DNA: Methods and Protocols, Copeland, W. C., Ed. Humana Press: Totowa, N.J., 2002; pp 159-176). Briefly, ARPE-19 cells were grown to confluency in 6-well plates. The cells were treated with NAC alkyl-ester analogues for 24 hours, washed and then treated with 500 uM HQ for an additional 24 hours. DNA was isolated from the treated cells with a QIAamp DNA mini kit (Qiagen). The DNA samples were diluted to 3 ng/μl for use in PCR reactions. PCR products were quantified using the Quant-iT Picogreen dsDNA Assay kit (Invitrogen). The relative amplification of the large band was normalized to untreated cells. The amplification of the small mitochondrial band was used to normalize the data obtained from the large band to account for mitochondrial DNA copy number.

For the compound `CCCCOC(=O)[C@H](CS)NC(C)=O` [NACBE, N-acetylcysteine butyl ester], the “cellular GSH level (luminescence) compared to untreated cells” value with ARPE-19 cells [1] is on record as “produced the highest amounts of GSH”. Moreover, the “protection towards mitochondrial damage (JC-1)” value in the assay on ARPE-19 cells [2] was “improved protection towards mitochondrial damage”. Moreover, the “mitochondrial GSH level (luminescence intensity)” value in assay [3] is on record as “increase in the luminescence intensity”. In addition, the “protection of mitochondrial DNA amplification against HQ” value in assay [4] is “keep the PCR amplification of the mitochondrial DNA intact”.

Source of the values: US20220409526A1 (Retina Foundation Of The Southwest, priority 2019, published 2022).
